The values that follow come from patent publication US20250171437A1 (Agios Pharmaceuticals,Inc., priority 2022, published 2025).

The target in one assay is T1, human PAH with the R408W mutation (A375 R408W cells) (Homo sapiens, UniProt P00439, R408W).
T1 construct: expressed in transfected cells
T1 sequence (P00439 1-452 R408W): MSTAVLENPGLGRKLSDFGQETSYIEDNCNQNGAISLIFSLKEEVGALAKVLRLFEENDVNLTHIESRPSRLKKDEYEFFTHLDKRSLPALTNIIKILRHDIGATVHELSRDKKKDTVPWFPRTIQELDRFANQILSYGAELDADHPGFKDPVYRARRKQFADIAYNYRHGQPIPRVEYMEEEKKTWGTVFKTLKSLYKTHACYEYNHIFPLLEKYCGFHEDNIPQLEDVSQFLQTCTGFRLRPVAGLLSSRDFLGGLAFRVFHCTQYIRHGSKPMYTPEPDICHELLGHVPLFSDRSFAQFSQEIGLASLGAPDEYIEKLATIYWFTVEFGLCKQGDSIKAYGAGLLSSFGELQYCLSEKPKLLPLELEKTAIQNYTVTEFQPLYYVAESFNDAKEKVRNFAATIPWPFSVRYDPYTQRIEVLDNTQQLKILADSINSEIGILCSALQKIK
As to the kind of experiment: Cell Based Phenylalanine Flux Assay. The note with it: A375 R408W cells; 24 hrs with compound, then 20 μM sepiapterin and 800 μM 13C9,15N-Phenylalanine for 4 hours; 13C-Tyrosine by LC-MS; average where tested multiple times. As for the experimental part: Cells expressing R408W PAH were made by transducing A375 cells with lentivirus encoding human PAH with the R408W mutation in pLVX-Puro, then selecting with puromycin until stable cell lines were generated. A375 R408W cells were seeded into 96 well plates in DMEM+10% FBS at a density of 40,000 cells/well one hour prior to compound addition. Compounds were resuspended in DMSO, and 2-fold serial dilutions were performed to generate a 10-point dose curve. Compounds were added to plated cells in a total volume of 100 μl, and a final DMSO concentration of 0.5%. Each compound was tested in duplicate. Following compound addition, cells were placed in a 5% CO2, 37° C. tissue culture incubator for 24 hrs. After the incubation period, 20 μM sepiapterin and 800 μM 13C9,15N-Phenylalanine were added. After 4 hours, cell media was removed. An aliquot of 10 μl of cell media was combined with 200 μl of extraction buffer (80% acetonitrile/20% H2O) for each well. Determination of ^13C-Tyrosine concentration was assessed by liquid chromatography mass spectrometry.
Specific compounds disclosed herein were tested in the foregoing assay and they were determined to have an AC50 according to the following scores: (A) less than or equal to 0.500 μM, (B) greater than 0.500 and less than […], (C) greater than or equal to 1.000 and less than 5.000 μM, (D) greater than or equal to 5.000 μM, (E) no fit, and (NT) not tested, as shown below. Where a compound was tested multiple times, the average value of the tests is reported.
The term AC50 denotes the midpoint of the concentration-response curve, whichever way the signal moves. As for `c1ccc2oc([C@H]3c4nc[nH]c4CN3c3nc4ccccc4o3)nc2c1` (single isomer, unassigned) [Example 932], the AC50 lay in the range of 1000 to 5000 nM.

For `Cn1nc(C(F)F)nc1C(=O)N1CCc2[nH]cnc2[C@@H]1c1nc2ccccc2o1` [Example 562, (R)-(4-(benzo[d]oxazol-2-yl)-6,7-dihydro-1H-imidazo[4,5-c]pyridin-5(4H)-yl)(3-(difluoromethyl)-1-methyl-1H-1,2,4-triazol-5-yl)methanone], the AC50 lay in the range of 1000 to 5000 nM.

Turning to `Cn1cc(-c2nnc(C(=O)N3CCc4[nH]cnc4[C@H]3c3nc4cc(F)ccc4o3)o2)cn1` [Example 67, (S)-(4-(5-fluorobenzo[d]oxazol-2-yl)-6,7-dihydro-1H-imidazo[4,5-c]pyridin-5(4H)-yl)(5-(1-methyl-1H-pyrazol-4-yl)-1,3,4-oxadiazol-2-yl)methanone], the AC50 lay within 1000 to 5000 nM.

For `Cc1ccc2oc([C@H]3c4nc[nH]c4CCN3C(=O)c3oc(-c4cn(C)cn4)nc3C(F)F)nc2c1` [Example 783, (R)-(4-(difluoromethyl)-2-(1-methyl-1H-imidazol-4-yl)oxazol-5-yl)(4-(5-methylbenzo[d]oxazol-2-yl)-6,7-dihydro-1H-imidazo[4,5-c]pyridin-5(4H)-yl)methanone], the AC50 is not above 500 nM.

In the case of `Cc1cccc2nc([C@@H]3c4nc[nH]c4CCN3C(=O)c3nnc(-c4ccccn4)o3)oc12` [Example 567, (S)-(4-(7-methylbenzo[d]oxazol-2-yl)-6,7-dihydro-1H-imidazo[4,5-c]pyridin-5(4H)-yl)(5-(pyridin-2-yl)-1,3,4-oxadiazol-2-yl)methanone], the AC50 was not above 500 nM.

`Cn1cc(-c2nnc(C(=O)N3CCc4[nH]cnc4[C@@H]3c3nc4cc(F)ccc4o3)o2)c(C(F)(F)F)n1` [Example 117, (R)-(4-(5-fluorobenzo[d]oxazol-2-yl)-6,7-dihydro-1H-imidazo[4,5-c]pyridin-5(4H)-yl)(5-(1-methyl-3-(trifluoromethyl)-1H-pyrazol-4-yl)-1,3,4-oxadiazol-2-yl)methanone]: the AC50 lay within 1000 to 5000 nM.

Regarding `Cc1nc([C@@H](C)O)oc1C(=O)N1CCc2[nH]cnc2[C@H]1c1nc2c(F)cccc2o1` [Example 210, ((S)-4-(4-fluorobenzo[d]oxazol-2-yl)-6,7-dihydro-1H-imidazo[4,5-c]pyridin-5(4H)-yl)(2-((R)-1-hydroxyethyl)-4-methyloxazol-5-yl)methanone], the AC50 was in the range of 500 to 1000 nM.

Turning to `Cc1cc(F)cc2nc([C@@H]3c4nc[nH]c4CCN3C(=O)c3oc(C(C)(C)O)nc3C(F)F)oc12` [Example 655, (S)-(4-(difluoromethyl)-2-(2-hydroxypropan-2-yl)oxazol-5-yl)(4-(5-fluoro-7-methylbenzo[d]oxazol-2-yl)-6,7-dihydro-1H-imidazo[4,5-c]pyridin-5(4H)-yl)methanone], the AC50 is not above 500 nM.

Regarding `Cn1cc(-c2nc(C(F)F)c(C(=O)N3CCc4[nH]cnc4[C@@H]3c3nc4ccccc4o3)o2)cn1` [Example 759, (R)-(4-(benzo[d]oxazol-2-yl)-6,7-dihydro-1H-imidazo[4,5-c]pyridin-5(4H)-yl)(4-(difluoromethyl)-2-(1-methyl-1H-pyrazol-4-yl)oxazol-5-yl)methanone], the AC50 is 1000 to 5000 nM.

Consider `Cc1ccc(F)c2nc([C@@H]3c4nc[nH]c4CCN3C(=O)c3oc(C(C)(C)O)nc3C(F)F)oc12` [Example 723, (S)-(4-(difluoromethyl)-2-(2-hydroxypropan-2-yl)oxazol-5-yl)(4-(4-fluoro-7-methylbenzo[d]oxazol-2-yl)-6,7-dihydro-1H-imidazo[4,5-c]pyridin-5(4H)-yl)methanone], for which the AC50 is not above 500 nM.

Turning to `O=C(c1nnc(C2CC2)o1)N1CCc2[nH]cnc2[C@H]1c1nc2c(F)ccc(F)c2o1` [Example 855, (S)-(5-cyclopropyl-1,3,4-oxadiazol-2-yl)(4-(4,7-difluorobenzo[d]oxazol-2-yl)-6,7-dihydro-1H-imidazo[4,5-c]pyridin-5(4H)-yl)methanone], the AC50 was not above 500 nM.

Regarding `CC(C)n1nccc1C(=O)N1CCc2[nH]cnc2[C@@H]1c1nc2ccccc2o1` [Example 751, (R)-(4-(benzo[d]oxazol-2-yl)-6,7-dihydro-1H-imidazo[4,5-c]pyridin-5(4H)-yl)(1-isopropyl-1H-pyrazol-5-yl)methanone], the AC50 lay in the range of 1000 to 5000 nM.

For `CC(C)(O)c1nc(Br)c(C(=O)N2CCc3[nH]cnc3[C@@H]2c2nc3cc(F)ccc3o2)o1` [Example 123, (R)-(4-bromo-2-(2-hydroxypropan-2-yl)oxazol-5-yl)(4-(5-fluorobenzo[d]oxazol-2-yl)-6,7-dihydro-1H-imidazo[4,5-c]pyridin-5(4H)-yl)methanone], the AC50 fell in the range of 1000 to 5000 nM.

With `O=C(c1nnc(-c2ncccc2F)o1)N1CCc2[nH]cnc2[C@H]1c1nc2c(F)ccc(F)c2o1` [Example 800, (S)-(4-(4,7-difluorobenzo[d]oxazol-2-yl)-6,7-dihydro-1H-imidazo[4,5-c]pyridin-5(4H)-yl)(5-(3-fluoropyridin-2-yl)-1,3,4-oxadiazol-2-yl)methanone], the AC50 is not above 500 nM.

On to `O=C(c1ccnn1C(F)F)N1Cc2[nH]cnc2[C@H]1c1nc2ccccc2o1` [Example 951, (S)-(4-(benzo[d]oxazol-2-yl)-4,6-dihydropyrrolo[3,4-d]imidazol-5(1H)-yl)(1-(difluoromethyl)-1H-pyrazol-5-yl)methanone], for which the AC50 fell in the range of 1000 to 5000 nM.

Turning to `Cn1nc(C(F)F)cc1C(=O)N1CCc2[nH]cnc2[C@H]1c1nc2ccccc2o1` [Example 731, (S)-(4-(benzo[d]oxazol-2-yl)-6,7-dihydro-1H-imidazo[4,5-c]pyridin-5(4H)-yl)(3-(difluoromethyl)-1-methyl-1H-pyrazol-5-yl)methanone], the AC50 was not above 500 nM.

In the case of `CN(C)CCc1ccc2c(C(=O)N3CCc4[nH]cnc4[C@H]3c3nc4cc(F)ccc4o3)cnn2c1` [Example 47, (S)-(6-(2-(dimethylamino)ethyl)pyrazolo[1,5-a]pyridin-3-yl)(4-(5-fluorobenzo[d]oxazol-2-yl)-6,7-dihydro-1H-imidazo[4,5-c]pyridin-5(4H)-yl)methanone], the AC50 was in the range of 1000 to 5000 nM.

Regarding `CC(C)(O)C1CCN(c2ccc3c(C(=O)N4CCc5[nH]cnc5[C@@H]4c4nc5c(F)cccc5o4)cnn3c2)CC1` [Example 508, (R)-(4-(4-fluorobenzo[d]oxazol-2-yl)-6,7-dihydro-1H-imidazo[4,5-c]pyridin-5(4H)-yl)(6-(4-(2-hydroxypropan-2-yl)piperidin-1-yl)pyrazolo[1,5-a]pyridin-3-yl)methanone], the AC50 was not below 5000 nM.

With `O=C(c1ccnn1C(F)F)N1CCc2[nH]cnc2[C@@H]1c1nc2ccc(F)c(F)c2o1` [Example 514, (R)-(4-(6,7-difluorobenzo[d]oxazol-2-yl)-6,7-dihydro-1H-imidazo[4,5-c]pyridin-5(4H)-yl)(1-(difluoromethyl)-1H-pyrazol-5-yl)methanone], the AC50 lay in the range of 1000 to 5000 nM.

Still in this assay, the particulars now being: A375 cells expressing R408W PAH; 24 hrs with compound, then 20 μM sepiapterin and 800 μM 13C9,15N-Phenylalanine for 4 hours; 13C-Tyrosine by LC-MS; average where tested multiple times.
Consider `COc1ccc2oc(C3c4nc[nH]c4CCN3C(=O)c3cnco3)nc2c1` (stereo not drawn), for which the AC50 is not below 5000 nM.

As for `Cn1nc(C(C)(C)C)cc1C(=O)N1CCc2[nH]cnc2C1c1nc2ccccc2o1` (stereo not drawn), the AC50 was not below 5000 nM.

As to `Cc1ccc2nc(C3c4nc[nH]c4CCN3C(=O)c3ocnc3C#N)oc2c1` (stereo not drawn), the concentration at half-maximal activity (AC50) was 1000 to 5000 nM.

As for `CC(C)(O)c1nc(C(=O)N2CCc3[nH]cnc3C2c2nc3cc(F)ccc3o2)no1` (stereo not drawn), the AC50 is not below 5000 nM.

Take `COCc1nnc(C(=O)N2CCc3[nH]cnc3C2c2nc3cc(F)ccc3o2)o1` (stereo not drawn): the AC50 lay in the range of 1000 to 5000 nM.

For `Cc1ccc2oc(C3c4nc[nH]c4CCN3C(=O)c3cnco3)nc2c1` (stereo not drawn), the AC50 fell in the range of 1000 to 5000 nM.

`COc1ccc(-c2nnc(C(=O)N3CCc4[nH]cnc4C3c3nc4cc(C(F)(F)F)ccc4o3)o2)nc1` (stereo not drawn): the AC50 is 1000 to 5000 nM.

`COCc1ncc(C(=O)N2CCc3[nH]cnc3C2c2nc3cc(F)ccc3o2)o1` (stereo not drawn): the AC50 is not below 5000 nM.

In the case of `Cn1nc(N)cc1C(=O)N1CCc2[nH]cnc2C1c1nc2cc(F)ccc2o1` (stereo not drawn), the AC50 is not below 5000 nM.

Take `CNc1ccc2c(C(=O)N3CCc4[nH]cnc4C3c3nc4cc(F)ccc4o3)cnn2c1` (stereo not drawn): the AC50 is 1000 to 5000 nM.

Consider `O=C(c1ccnn1-c1ccccn1)N1CCc2[nH]cnc2C1c1nc2ccccc2o1` (stereo not drawn), for which the AC50 was 1000 to 5000 nM.
